# Measurements as given in US7223759B2, “Antibacterial 3,5-diaminopiperidine-substituted aromatic and heteroaromatic compounds” (Anadys Pharmaceuticals, Inc., priority 2003, dated 2007).
# System: Escherichia coli (ATCC25922) or Staphylococcus aureus (ATCC25923)
# Test: Antibacterial MIC, microdilution method in Mueller-Hinton medium
# Type: cell-based
# Details: Escherichia coli, 18 h, MIC in E. coli or S. aureus; two-fold serial dilutions 64 to 0.5 μg/ml in duplicate; 18 hours of incubation at 35° C.; read-out: Potency (MIC)
# In short: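 Two-fold serial dilutions from 64 to 0.5 μg/ml, in duplicate, by broth microdilution in Mueller-Hinton medium (NCCLS M7-A5). MIC taken as the lowest concentration preventing visible growth after 18 h at 35° C.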
row,MIC,Compound
1,< 16 µg/mL,"COc1ccc(Nc2ccc(NC(=O)CC(=O)c3ccc(Nc4nc(N5CCCCC5)nc(N5CCCCC5)n4)cc3)cc2)cc1 [N-{4-[2-(4-methoxy-phenylcarbamoyl)-acetyl]-phenyl}-44,6-Bis-((3R,5S)-3,5-diamino-piperidin-1-yl)-[1,3,5]triazine-2-amine]"
2,> 64 µg/mL,"N[C@@H]1C[C@H](N)CN(c2nc(NC3CCNC3)nc(N3C[C@H](N)C[C@H](N)C3)n2)C1 (stereo partly drawn) [N-pyrrolidin-3-yl-4,6-Bis-((#r,5S)-3,5-diamino-piperidin-1-yl)-[1,3,5]triazine-2-amine]"
3,< 64 µg/mL,"Cc1ccc(Nc2nc(N3C[C@H](N)C[C@H](N)C3)nc(N3C[C@H](N)C[C@H](N)C3)n2)cc1C.Cl [N-(3,4-dimethyl-phenyl)-4,6-Bis-((3R,5S)-3,5-ddiamino-piperidin-1-yl)-[1,3,5]triazine-2-amine]"
4,< 16 µg/mL,"N[C@@H]1C[C@H](N)CN(c2nc(Nc3ccc(NC(=O)C45CC6CC(CC(C6)C4)C5)c(O)c3)nc(N3C[C@H](N)C[C@H](N)C3)n2)C1 [N-{4-[(adamantane-1-carbonyl)-amino]-3-hydroxy-phenyl}-4,6-Bis-((3R,5S)-3,5-diamino-piperidin-1-yl)-[1,3,5]triazine-2-amine]"
5,> 64 µg/mL,"COC(=O)c1c(N2C[C@H](N)C[C@H](N)C2)nc2ccccc2c1N1C[C@H](N)C[C@H](N)C1.Cl [2,4-Bis-((3R,5S)-3,5-diamino-piperidin-1-yl)-quinoline-3-carboxylic acidmethylester]"
6,> 64 µg/mL,"COC(=O)c1ccccc1Nc1nc(N2C[C@H](N)C[C@H](N)C2)nc(N2C[C@H](N)C[C@H](N)C2)n1 [2-[4,6-Bis-((3R,5S)-3,5-diamino-piperidin-1-yl)-[1,3,5]triazin-2-ylamino]-benzoic acid methyl ester]"

row,Compound,MIC
1,"Cc1ccc(C(=O)Nc2ccc(Nc3nc(N4C[C@H](N)C[C@H](N)C4)nc(N4C[C@H](N)C[C@H](N)C4)n3)cc2O)c(O)c1 [N-[3-hydroxy-4-(2-hydroxy-4-methyl-benzoylamino)-phenyl]-4,6-Bis-((3R,5S)-3,5-diamino-piperidin-1-yl)-[1,3,5]triazine-2-amine]",< 16 µg/mL

# Same assay, conditions: Escherichia coli, 18 h, read-out: Potency (MIC)
row,Compound,MIC
1,"N[C@@H]1C[C@H](N)CN(c2nc(Nc3ccc(NC(=O)CO)cc3)nc(N3C[C@H](N)C[C@H](N)C3)n2)C1 [N-[4-(2-hydroxy-acetylamino)-phenyl]-4,6-Bis-((3R,5S)-3,5-diamino-piperidin-1-yl)-[1,3,5]triazine-2-amine]",> 64 µg/mL
2,"N[C@@H]1C[C@H](N)CN(c2nc(Nc3ccc(C(=O)CC(=O)NCc4ccc5c(c4)OCO5)cc3)nc(N3C[C@H](N)C[C@H](N)C3)n2)C1 [N-(4-{2-[(benzo[1,3]dioxol-5-ylmethyl)-carbamoyl]-acetyl}-phenyl)-4,6-Bis-((3R,5S)-3,5-diamino-piperidin-1-yl)-[1,3,5]triazine-2-amine]",> 64 µg/mL
3,"NC(=O)c1ccc(Nc2nc(N3C[C@H](N)C[C@H](N)C3)nc(N3C[C@@H](N)C[C@H]3CO)n2)cc1O [4-[4-((2S,4S)-4-Amino-2-hydroxymethyl-pyrrolidin-1-yl)-6-((3R,5S)-3,5-diamino-piperidin-1-yl)-[1,3,5]triazin-2-ylamino]-2-hydroxy-benzamide]",> 64 µg/mL
4,"COc1ccc(OC)c(NC(=O)CC(=O)c2ccc(Nc3nc(N4C[C@H](N)C[C@H](N)C4)nc(N4C[C@H](N)C[C@H](N)C4)n3)cc2)c1 [N-{4-[2-(2,5-dimethoxy-phenylcarbamoyl)-acetyl]-phenyl}-4,6-Bis-((3R,5S)-3,5-diamino-piperidin-1-yl)-[1,3,5]triazine-2-amine]",< 64 µg/mL
5,"N[C@@H]1C[C@H](N)CN(c2nc(Nc3ccc(C(=O)CC(=O)Nc4ccc(Cl)cc4)cc3)nc(N3C[C@H](N)C[C@H](N)C3)n2)C1 [N-{4-[2-(4-chloro-phenylcarbamoyl)-acetyl]-phenyl}-4,6-Bis-((3R,5S)-3,5-diamino-piperidin-1-yl)-[1,3,5]triazine-2-amine]",< 16 µg/mL
6,"Cc1cc(Nc2nc(N3C[C@H](N)C[C@H](N)C3)nc(N3C[C@H](N)C[C@H](N)C3)n2)ccc1NC(=O)c1ccc(Cl)cc1O [N-[4-(4-chloro-2-hydroxy-benzoylamino)-3-methyl-phenyl]-4,6-Bis-((3R,5S)-3,5-diamino-piperidin-1-yl)-[1,3,5]triazine-2-amine]",< 16 µg/mL
7,"COc1cccc(S(=O)(=O)Nc2ccc(Nc3nc(N4C[C@H](N)C[C@H](N)C4)nc(N4C[C@H](N)C[C@H](N)C4)n3)cc2O)c1 [N-[3-hydroxy-4-(3-methoxy-benzenesulfonylamino)-phenyl]-4,6-Bis-((3R,5S)-3,5-diamino-piperidin-1-yl)-[1,3,5]triazine-2-amine]",< 64 µg/mL
8,"N[C@@H]1C[C@H](N)CN(c2nc(Nc3ccc([N+](=O)[O-])cc3)nc(N3C[C@H](N)C[C@H](N)C3)n2)C1 [N-(4-nitro-phenyl)-4,6-Bis-((3R,5S)-3,5-diamino-piperidin-1-yl)-[1,3,5]triazine-2-amine]",< 64 µg/mL
9,"N[C@@H]1C[C@H](N)CN(c2nc3nc(Nc4ccc(NC(=O)c5ccc6ccccc6c5O)cc4)nc(N4C[C@H](N)C[C@H](N)C4)c3[nH]2)C1 [1-Hydroxy-naphthalene-2-carboxylicacid {4-[6-((3R,5S)-3,5-diamino-piperidin-1-yl)-8-((3S,5R)-3,5-diamino-piperidin-1-yl)-7H-purin-2-ylamino]-phenyl}-amide]",< 16 µg/mL
10,"NC[C@@H]1CN(c2nc(Nc3ccc(NC(=O)c4ccc5ccccc5c4O)cc3)nc(N3C[C@H](N)C[C@H](N)C3)n2)CC[C@@H]1O [1-Hydroxy-naphthalene-2-carboxylic acid {4-[4-((3R,4S)-3-aminomethyl-4-hydroxy-piperidin-1-yl)-6-((3R,5S)-3,5-diamino-piperidin-1-yl)-[1,3,5]triazin-2-ylamino]-phenyl}-amide]",< 16 µg/mL
11,"CC(=O)c1ccc(Nc2nc(N3C[C@H](N)C[C@H](N)C3)nc(N3C[C@@H](N)[C@@H](N)C3)n2)cc1 [1-{4-[4-((3R,5S)-3,5-Diamino-piperidin-1-yl)-6-((3R,4S)-3,4-diamino-pyrrolidin-1-yl)-[1,3,5]triazin-2-ylamino]-phenyl}-ethanone]",> 64 µg/mL
12,"N[C@@H]1C[C@H](N)CN(c2nc(Nc3ccc(NC(=O)c4ccc(F)cc4O)c(O)c3)nc(N3C[C@H](N)C[C@H](N)C3)n2)C1 [N-[4-(4-fluoro-2-hydroxy-benzoylamino)-3-hydroxy-phenyl]-4,6-Bis-((3R,5S)-3,5-diamino-piperidin-1-yl)-[1,3,5]triazine-2-amine]",< 16 µg/mL
13,"N[C@@H]1C[C@H](N)CN(c2nc(Nc3cc(Cl)c(NC(=O)c4ccc(Cl)cc4O)c(Cl)c3)nc(N3C[C@H](N)C[C@H](N)C3)n2)C1 [N-[3,5-dichloro-4-(4-chloro-2-hydroxy-benzoylamino)-phenyl]-4,6-Bis-((3R,5S)-3,5-diamino-piperidin-1-yl)-[1,3,5]triazine-2-amine]",< 16 µg/mL
14,"CCN(c1ccc(Nc2nc(N3C[C@H](N)C[C@H](N)C3)nc(N3C[C@H](N)C[C@H](N)C3)n2)cc1)C(C)C [N-[4-(ethyl-isopropyl-amino)-phenyl]-4,6-Bis-((3R,5S)-3,5-diamino-piperidin-1-yl)-[1,3,5]triazine-2-amine]",> 64 µg/mL
15,"CN(C)c1ccc(C(=O)Nc2ccc(Nc3nc(N4C[C@H](N)C[C@H](N)C4)nc(N4C[C@H](N)C[C@H](N)C4)n3)cc2O)c(O)c1 [N-[4-(4-dimethylamino-2-hydroxy-benzoylamino)-3-hydroxy-phenyl]-4,6-Bis-((3R,5S)-3,5-diamino-piperidin-1-yl)-[1,3,5]triazine-2-amine]",< 16 µg/mL
16,"NC[C@@H]1C[C@@H](O)CN1c1nc(Nc2ccc3c(c2)C(=O)c2ccccc2-3)nc(N2C[C@H](N)C[C@H](N)C2)n1 [2-[4-((2S,4R)-2-Aminomethyl-4-hydroxy-pyrrolidin-1-yl)-6-((3R,5S)-3,5-diamino-piperidin-1-yl)-[1,3,5]triazin-2-ylamino]-fluoren-9-one]",> 64 µg/mL
17,"N[C@@H]1C[C@H](N)CN(c2cc(Nc3ccc(NC(=O)c4ccc5ccccc5c4O)cc3)nc(N3C[C@H](N)C[C@H](N)C3)c2)C1 [1-Hydroxy-naphthalene-2-carboxylic acid [4-(4,6-Bis-((3R,5S)-3,5-diamino-piperidin-1-yl)-pyridin-2-ylamino)-phenyl]-amide]",< 16 µg/mL
18,"N[C@@H]1C[C@H](N)CN(c2nc(Nc3ccc(NS(=O)(=O)c4cc(Cl)cc(Cl)c4O)c(O)c3)nc(N3C[C@H](N)C[C@H](N)C3)n2)C1 [N-[4-(3,5-dichloro-2-hydroxy-benzenesulfonylamino)-3-hydroxy-phenyl]-4,6-Bis-((3R,5S)-3,5-diamino-piperidin-1-yl)-[1,3,5]triazine-2-amine]",< 16 µg/mL
19,"NCc1ccc(NC(=O)CC(=O)c2ccc(Nc3nc(N4C[C@H](N)C[C@H](N)C4)nc(N4C[C@H](N)C[C@H](N)C4)n3)cc2)cc1 [N-{4-[2-(4-aminomethyl-phenylcarbamoyl)-acetyl]-phenyl}-4,6-Bis-((3R,5S)-3,5-diamino-piperidin-1-yl)-[1,3,5]triazine-2-amine]",> 64 µg/mL
20,"N[C@@H]1C[C@H](N)CN(c2cc(Nc3ccc(NC(=O)c4ccc5ccccc5c4O)cc3)nc(N3C[C@H](N)C[C@H](N)C3)n2)C1 [1-Hydroxy-naphthalene-2-carboxylicacid {4-[2-((3R,5S)-3,5-diamino-piperidin-1-yl)-6-((3S,5R)-3,5-diamino-piperidin-1-yl)-pyrimidin-4-ylamino]-phenyl}-amide]",< 16 µg/mL

# Same assay, conditions: MIC in E. coli or S. aureus; two-fold serial dilutions 64 to 0.5 μg/ml in duplicate; 18 hours of incubation at 35° C.
row,Compound,Potency (MIC)
1,"CC(=O)c1ccc(Nc2nc(N3C[C@H](N)C[C@H](N)C3)nc(N3C[C@H](CN)C[C@H](CN)C3)n2)cc1 [1-{4-[4-((3S,5R)-3,5-Bis-(aminomethyl)-piperidin-1-tl)-6-((3R,5S)-3,5-diamino-piperidin-1-l)-[1,3,5]triazin-2-ylamino]-phenyl}-ethanone]",− (− means MIC>64 μg/ml in E. coli or S. aureus)
